Structures are written as SMILES.

This assay concerns MMP13 expression in SW1353 chondrosarcoma cell line. Kind of assay: MMP13 assay: IL-1/OSM-driven MMP13 expression in SW1353 cells (MMP13 ELISA). The class given is cell-based. The conditions noted are these: Homo sapiens, IL-1β and OSM, 48 hr. Here is the method: The protocol of the MMP13 ELISA is described in section 4.1, then testing of compounds on release of IL-1/OSM-driven MMP13 expression in SW1353 chondrosarcoma cell line is described in section 4.2.
A 384 well format ELISA for measurement of MMP13 was developed. Various primary antibodies were tested, as well as various ELISA protocols. The following protocol is developed and validated to measure MMP13 levels in supernatant of cell cultures in 384 well plates.
Black maxisorb 384 well plates (Nunc 460518) are coated with 35 μl of a buffered solution containing 1.5 μg/mL anti-MMP13 antibody MAB511 (R&D systems). The antibody is diluted in carbonate-bicarbonate coating buffer (1.59 g Na2CO3 (Sigma S-7795) and 2.93 g NaHCO3 (Sigma S-5761) in 1 L MilliQ water, adjusted to pH 9.6). After overnight incubation at 4° C., wells are washed twice with 100 μL PBST (80 g NaCl, 2 g KCl (Sigma), 11.5 g Na2HPO4.7H2O and 2 g KH2PO4 in 10 L milliQ water; pH 7.4+0.05% Tween-20 (Sigma)) and blocked with 100 μL/well blocking buffer (5% non fat dry milk in PBS). After overnight incubation at 4° C., wells are washed twice with 100 μL PBST. The PBST is removed and 35 μL of sample is transferred to the ELISA plates. After 4 hr incubation at RT, plates are washed twice with PBST and incubated for 1 hr at 37° C. with 35 μL/well 1.5 mM APMA solution (a 10 mM APMA stock solution is prepared one day before (35.18 mg APMA (Sigma A-9563) in 10 mL 0.1M NaOH (Merck 1.06469.1000) and stored at 4° C. Before use, the 10 mM APMA stock solution is diluted to 1.5 mM in 1×APMA buffer (10× APMA buffer: 500 mM Tris (Roche 708976), 50 mM CaCl2 (Sigma C-5080), […] ZnCl2 (Sigma Z-0173), 1.5 M NaCl (Calbiochem 567441), 0.5% Brij35 (Sigma 430 AG-6) and adjust to pH 7.0). After activation of MMP13 by APMA, plates are washed again two times with 100 μL PBST/well and 35 μL of substrate solution is added to each well. Substrate solution is prepared as follows: OmniMMP Fluorescent substrate (Biomol P-126) stock solution (2 mM in DMSO, stored at −20° C.) is diluted in 1× OmniMMP buffer (10× OmniMMP buffer: 500 mM Hepes (Sigma H4034), 100 mM CaCl2 (Sigma C5080), 0.5% Brij35 (Sigma 430 AG-6; adjusted to pH 7.0) to a final concentration of 0.01 mM. After an overnight incubation at 37° C., the active MMP13 in the sample has cleaved the substrate and released fluorescence. Readout is performed on the EnVision (Perkin Elmer) using 320 nm excitation/405 nm emission filters.
Human chondrosarcoma cell line SW1353 was acquired from ATCC and grown in DMEM supplemented with 10% heat-inactivated FBS and 1× penicillin/streptomycin (Invitrogen) in a humidified 5% CO2 incubator at 37° C. Aliquots of the cells were frozen and cryopreserved in liquid nitrogen. Starting from a cryopreserved aliquot, cells are further grown by sub-culturing at a 1/5-1/8 ratio twice a week by trypsinisation.
Starting from the compound master stocks (all at 10 mM concentration in 100% DMSO) a 3-fold serial dilution is made in 96-well plates in 100% DMSO. Then, plates are futher diluted 50-fold in M199 medium supplemented with 1% heat-inactivated FBS to obtain an intermediate work stock.
At day 1, SW1353 cells are seeded in 96-well plates (flat bottom, tissue culture treated, Greiner) at a density of 15000 cells/well in 120 μL growth medium. The next day, 15 μL compound out of the intermediate work stock is added. After an incubation period of 60 minutes, which allows the compounds to equilibrate and enter the cells, cells are stimulated with a mixture of IL-1β and OSM, added in a volume of 15 μL to obtain final concentrations of 1 ng/ml IL-1β and 25 ng/ml OSM. For that, stocks of IL-1 (10 μg/ml) and OSM (25 μg/ml) (both PeproTech) were diluted to 10 ng/ml and 250 ng/ml respectively, in M199 medium supplemented with 1% FBS. After incubation for 48 hr, the cell supernatant was harvested and an appropriate dilution was processed in the MMP13 ELISA as described above, delivering raw data (RFU: relative fluorescence units). […]
For orientation: In an ELISA, binding on a coated surface is turned into a signal by an enzyme label.
Usually IC50 stands for the concentration needed to halve the response being measured. The low end stands for greater potency, the high end for weaker potency. In the case of `CC(C)N1C[C@@H]2C[C@H]1CN2c1ccc(Nc2ncc(-c3ccc4c(c3)CNC4=O)n3ncnc23)cc1` [Compound 1, 5-{8-[4-((1S,4S)-5-Isopropyl-2,5-diaza-bicyclo[2.2.1]hept-2-yl)-phenylamino]-[1,2,4]triazolo[1,5-a]pyrazin-5-yl}-2,3-dihydro-isoindol-1-one], the IC50 was more than 1000 nM.
For `CC(C)N1C[C@@H]2C[C@H]1CN2c1ccc(Nc2ncc(-c3coc(C(N)=O)c3)n3ncnc23)cc1` [Compound 2, 4-{8-[4-((1S,4S)-5-Isopropyl-2,5-diaza-bicyclo[2.2.1]hept-2-yl)-phenylamino]-[1,2,4]triazolo[1,5-a]pyrazin-5-yl}-furan-2-carboxamide], the IC50 lay in the range of 1 to 500 nM.
For `CC(C)(C)N1C[C@@H]2C[C@H]1CN2c1ccc(Nc2ncc(-c3coc(C(N)=O)c3)n3ncnc23)cc1` [Compound 3, 4-{8-[4-((1S,4S)-5-tert-Butyl-2,5-diaza-bicyclo[2.2.1]hept-2-yl)-phenylamino]-[1,2,4]triazolo[1,5-a]pyrazin-5-yl}-furan-2-carboxamide], the IC50 lay within 1 to 500 nM.
Consider `CC(C)N1C[C@@H]2C[C@H]1CN2c1ccc(Nc2ncc(-c3coc(C(N)=O)c3)n3ccnc23)cc1` [Compound 4, 4-{8-[4-((1S,4S)-5-Isopropyl-2,5-diaza-bicyclo[2.2.1]hept-2-yl)-phenylamino]-imidazo[1,2-a]pyrazin-5-yl}-furan-2-carboxamide], for which the IC50 is more than 1000 nM.
Take `CC(C)N1C[C@@H]2C[C@H]1CN2c1ccc(Nc2ncc(-c3cc(C(N)=O)n[nH]3)n3ncnc23)cc1` [Compound 5, 5-{8-(4-((1S,4S)-5-isopropyl-2,5-diazabicyclo[2.2.1]heptan-2-yl)phenyl-amino)-[1,2,4]triazolo[1,5-a]pyrazin-5-yl}-1H-pyrazole-3-carboxamide]: the IC50 is more than 1000 nM.
The result for `CC(C)(C)N1C[C@@H]2C[C@H]1CN2c1ccc(Nc2ncc(-c3coc(C(N)=O)c3)n3ccnc23)cc1` [Compound 6] reads more than 1000 nM; that for `CC(C)N1C[C@@H]2C[C@H]1CN2c1ccc(Nc2ncc(-c3cc[nH]c(=O)c3)n3ccnc23)cc1` [Compound 8, 4-{8-(4-((1S,4S)-5-isopropyl-2,5-diazabicyclo[2.2.1]heptan-2-yl)phenyl-amino)imidazo[1,2-a]pyrazin-5-yl}-1H-pyridin-2-one], 1 to 500 nM.
On to `CC(C)N1CC2CCC1CN2c1ccc(Nc2ncc(-c3coc(C(N)=O)c3)n3ncnc23)cc1` (centres unmarked) [Compound 9, 4-{8-(4-(5-isopropyl-2,5-diazabicyclo[2.2.2]octan-2-yl)phenylamino)[1,2,4]-triazolo[1,5-a]pyrazin-5-yl}-furan-2-carboxamide], for which the 50% inhibitory concentration (IC50) is more than 1000 nM.
`CC(C)N1CC2CCC(C1)N2c1ccc(Nc2ncc(-c3coc(C(N)=O)c3)n3ccnc23)cc1` [Compound 11, 4-{8-(4-(3-isopropyl-3,8-diazabicyclo[3.2.1]octan-8-yl)phenylamino)-imidazo[1,2-a]pyrazin-5-yl}-furan-2-carboxamide] showed an IC50 of more than 1000 nM.
On to `CC(C)N1C2CCC1CN(c1ccc(Nc3ncc(-c4coc(C(N)=O)c4)n4ncnc34)cc1)C2` [Compound 12, 4-{8-(4-(8-isopropyl-3,8-diazabicyclo[3.2.1]octan-3-yl)phenylamino)[1,2,4]-triazolo[1,5-a]pyrazin-5-yl}-furan-2-carboxamide], for which the IC50 was more than 1000 nM.
The molecule `CC(C)N1C[C@@H]2C[C@H]1CN2c1ccc(Nc2ncc(-c3cc(C(N)=O)n[nH]3)n3ncnc23)cn1` [Compound 15, 5-{8-(6-((1S,4S)-5-isopropyl-2,5-diazabicyclo[2.2.1]heptan-2-yl)pyridin-3-ylamino)-[1,2,4]triazolo[1,5-a]pyrazin-5-yl}-1H-pyrazole-3-carboxylic acid amide] registered a concentration for half-maximal inhibition (IC50) of more than 1000 nM.
The result for `CC(C)(C)N1C[C@@H]2C[C@H]1CN2c1ccc(Nc2ncc(-c3ccc4c(c3)CNC4=O)n3ncnc23)cc1` [Compound 16, 5-{8-(4-((1S,4S)-5-tert-butyl-2,5-diazabicyclo[2.2.1]heptan-2-yl)phenylamino)-[1,2,4]triazolo-[1,5-a]pyrazin-5-yl}-2,3-dihydro-isoindol-1-one] reads more than 1000 nM.
The result for `CC(C)(C)N1C[C@@H]2C[C@H]1CN2c1ccc(Nc2ncc(-c3cc(C(N)=O)n[nH]3)n3ncnc23)cc1` [Compound 17, 5-{8-(4-((1S,4S)-5-tert-butyl-2,5-diazabicyclo[2.2.1]heptan-2-yl)phenyl-amino)-[1,2,4]triazolo[1,5-a]pyrazin-5-yl}-1H-pyrazole-3-carboxylic acid amide] reads 501 to 1000 nM.
In turn, `CC(C)N1C[C@@H]2C[C@H]1CN2c1ccc(Nc2ncc(-c3ccc4c(c3)CNC4=O)n3ncnc23)cn1` [Compound 18, 5-{8-(6-((1S,4S)-5-isopropyl-2,5-diazabicyclo[2.2.1]heptan-2-yl)pyridin-3-ylamino)-[1,2,4]triazolo[1,5-a]pyrazin-5-yl}-2,3-dihydro-isoindol-1-one] registered an IC50 of more than 1000 nM.
With `CCOc1cc(-c2cnc(Nc3ccc(N4C[C@@H]5C[C@H]4CN5C(C)C)cc3)c3ncnn23)ccn1` [Compound 19, 5-(2-ethoxypyridin-4-yl)-N-(4-((1S,4S)-5-isopropyl-2,5-diazabicyclo[2.2.1]heptan-2-yl)phenyl)-[1,2,4]triazolo[1,5-a]pyrazin-8-amine] the figure was more than 1000 nM; with `CC(C)N1C[C@@H]2C[C@H]1CN2c1ccc(Nc2ncc(-c3cc[nH]c(=O)c3)n3ncnc23)cc1` [Compound 20, 4-(8-(4-((1S,4S)-5-isopropyl-2,5-diazabicyclo[2.2.1]heptan-2-yl)phenylamino)-[1,2,4]triazolo[1,5-a]pyrazin-5-yl)pyridin-2(1H)-one], more than 1000 nM; with `CCOC(=O)c1cc(-c2cnc(Nc3ccc(N4C[C@@H]5C[C@H]4CN5C(C)C)cc3)c3ncnn23)[nH]n1` [Compound 21, Ethyl 5-(8-(4-((1S,4S)-5-isopropyl-2,5-diazabicyclo[2.2.1]heptan-2-yl)phenylamino)-[1,2,4]triazolo[1,5-a]pyrazin-5-yl)-1H-pyrazole-3-carboxylate], more than 1000 nM.
Take `CCOc1cc(-c2cnc(Nc3ccc(N4C[C@@H]5C[C@H]4CN5C(C)C)cc3)c3nccn23)ccn1` [Compound 22, 5-(2-ethoxypyridin-4-yl)-N-(4-((1S,4S)-5-isopropyl-2,5-diazabicyclo[2.2.1]heptan-2-yl)phenyl)imidazo[1,2-a]pyrazin-8-amine]: the IC50 is more than 1000 nM.
With `CC(C)N1C[C@@H]2C[C@H]1CN2c1ccc(Nc2ncc(-c3noc(C(N)=O)n3)n3ncnc23)cc1` [Compound 23, 3-(8-(4-((1S,4S)-5-isopropyl-2,5-diazabicyclo[2.2.1]heptan-2-yl)phenylamino)-[1,2,4]triazolo[1,5-a]pyrazin-5-yl)-1,2,4-oxadiazole-5-carboxamide] the figure was more than 1000 nM.
The result for `CC(C)N1C[C@@H]2C[C@H]1CN2c1cccc(Nc2ncc(-c3coc(C(N)=O)c3)n3ncnc23)c1` [Compound 24, 4-(8-(3-((1S,4S)-5-isopropyl-2,5-diazabicyclo[2.2.1]heptan-2-yl)phenylamino)-[1,2,4]triazolo[1,5-a]pyrazin-5-yl)furan-2-carboxamide] reads more than 1000 nM.

Values taken from US8012983B2, “Substituted triazolopyrazines useful for the treatment of degenerative and inflammatory diseases” (Galapagos NV, priority 2008, dated 2011).
